The target of assay [1] is T1, CB1R (Mus musculus, UniProt P47746). The assay is described as follows: cell-based. As to conditions: for EC50: EC50, inhibition of forskolin-stimulated cAMP accumulation, 1 μM forskolin. Background: Cyclic AMP is a second messenger, typically raised through Gs and lowered through Gi signalling.
Assay [2] has as its target T1, CB1R. Format: cell-based. The conditions noted are these: for agonist-stimulated enhancement in phosphoERK1/2 levels: over basal (Fig. 4); for agonist-stimulated maximal ERK1/2 phosphorylation: 5 min (Fig. 4B); for stimulated ERK1/2 phosphorylation: 5 min (Fig. 5B).
Assay [3] deals with CB1R. As to the kind of experiment: On-cell-Western CB1R cell surface density in N18TG2 clones. Type of assay: cell-based, mouse.
For the next assay, the target named is CB1R coupling to Gαi2 (Mus musculus, UniProt P47746). As to conditions: 100 nM.
Sequence of CB1R coupling to Gαi2 (P47746 whole entry): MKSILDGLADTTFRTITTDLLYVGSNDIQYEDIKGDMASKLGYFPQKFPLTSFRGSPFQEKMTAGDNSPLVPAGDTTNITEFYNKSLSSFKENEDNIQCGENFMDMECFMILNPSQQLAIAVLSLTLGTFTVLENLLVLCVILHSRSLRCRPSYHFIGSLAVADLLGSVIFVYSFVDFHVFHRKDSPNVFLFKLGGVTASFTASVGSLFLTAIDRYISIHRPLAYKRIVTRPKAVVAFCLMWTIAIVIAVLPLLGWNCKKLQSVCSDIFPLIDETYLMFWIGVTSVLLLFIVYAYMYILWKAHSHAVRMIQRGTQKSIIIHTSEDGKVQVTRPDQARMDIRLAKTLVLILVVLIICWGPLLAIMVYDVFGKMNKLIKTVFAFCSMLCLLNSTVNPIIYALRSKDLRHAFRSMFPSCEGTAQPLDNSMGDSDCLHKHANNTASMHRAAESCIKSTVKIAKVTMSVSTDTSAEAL
A further assay concerns the target CB1R coupling to Gαo (Mus musculus, UniProt P47746). As to conditions: 100 nM.
Another assay has as its target CB1R coupling to Gαi3 (Mus musculus, UniProt P47746). The conditions noted are these: 100 nM.
The target in a further assay is CB1R coupling to Gαi1 (Mus musculus, UniProt P47746). As to conditions: 100 nM.
Sequence of CB1R coupling to Gαi1 (P47746 whole entry): as above
Setting [4] is: WT, Control or CRIP1a KD membranes.

Structures are written as SMILES. Where two headings read alike, the source gives them in different places.

Sequence of CB1R coupling to Gαo (P47746 whole entry): as above
Sequence of CB1R coupling to Gαi3 (P47746 whole entry): as above
T1 sequence (P47746 whole entry): as above

As for `C=C[C@@]1(C)CC(=O)[C@]2(O)[C@@]3(C)[C@@H](O)CCC(C)(C)[C@@H]3[C@H](O)[C@H](OC(C)=O)[C@@]2(C)O1` [forskolin], at CB1R [1] (1 μM, 4 min, WT, Control, CRIP1a XS, CRIP1a KD), the “stimulation of cAMP accumulation over vehicle” value was “to the same extent in all cell lines tested”.

On to `O=C(NN=Cc1ccc(O)c(O)c1)c1cc2ccccc2cc1O` [Dynasore, 3-Hydroxynaphthalene-2-carboxylic acid (3,4-dihydroxybenzylidene)hydrazide], for which, at CB1R [2] (WT, CRIP1a-XS and KD clones, Dynasore 80 μM, 30 min preincubation, CP55940 10 nM), the “effect on CP55940-stimulated phosphorylation of ERK1/2” value was “completely blocked”.

For `C[C@@H]1C[C@@H]([C@H](O)CC2CC(=O)NC(=O)C2)C(=O)[C@@H](C)C1` [cycloheximide], the “effect on CB1R plasma membrane density” value with CB1R [3] (CRIP1a XS or KD cells, 50 μM, 2 h pre-treatment (data not shown)) is listed as “failed to alter”.

As for `CCCCC/C=C\C/C=C\C/C=C\C/C=C\CCCC(=O)N[C@H](C)CO` [mAEA, (R)-N-(2-Hydroxy-1-methylethyl)-5Z,8Z,11Z,14Z-eicosatetraenamide], at CB1R [2] (N18TG2 WT cells, 10 nM, 5 min), the “ERK phosphorylation as share of the response observed with a CB1R full agonist” value is ~ 30% and the “agonist-stimulated enhancement in phosphoERK1/2 levels” value (from here on “agonist-stimulated enhancement”) is recorded as 12±2%. For the same compound, the “effect on cAMP accumulation” value on CB1R [1] (all clones, not altered by differences in the expression of CRIP1a (Fig. 7B)) is recorded as “concentration-dependent attenuation”.

As for `Cc1c(C(=O)c2cccc3ccccc23)c2cccc3c2n1C(CN1CCOCC1)CO3` (stereo not drawn) [WIN55212-2, [2,3-dihydro-5-methyl-3-[(4-morpholinyl)methyl]pyrrolo[1,2,3-de]-1,4-benzoxazin-6-yl](1-naphthyl)methanone], the “agonist-stimulated enhancement” value at CB1R [2] (N18TG2 WT cells, 10 nM, 5 min) is listed as 36±5%.

As to `CCCCCCCCCCC[C@@H](C[C@@H]1OC(=O)[C@H]1CCCCCC)OC(=O)[C@H](CC(C)C)NC=O` [THL, tetrahydrolipstatin], the “effect on total or cell surface levels of CB1R” value in the assay with CB1R [3] (THL pretreatment 1 μM, 2 h (data not shown)) was “did not change”.

As usually defined, the EC50 is the concentration giving half of the maximal effect. A high value points to a less potent agent. Turning to `CCCCCCC(C)(C)c1ccc([C@@H]2C[C@H](O)CC[C@H]2CCCO)c(O)c1` [CP55940, (−)-cis-3-[2-Hydroxy-4-(1,1-dimethyl-heptyl)phenyl]-trans-4-(3-hydroxypropyl)cyclohexanol], the “agonist-stimulated maximal ERK1/2 phosphorylation” value on CB1R [2] (CRIP1a KD2C cells, 10 nM) is given as 63±8%; on CB1R [2] (CRIP1a KD2F cells, 10 nM), 59±4%. Also, the “stimulated ERK1/2 phosphorylation” value was 68±4% at CB1R [2] (KD2C cells, 10 nM); 58±5% on CB1R [2] (KD2C cells, 100 nM); 73±5% at CB1R [2] (KD2F cells, 10 nM); 62±6% at CB1R [2] (KD2F cells, 100 nM). For the same compound, the “agonist-stimulated enhancement” value at CB1R [2] (N18TG2 WT cells, 10 nM, 5 min) is 45±6%. Moreover, the “time of rapid increase in phosphoERK1/2 levels” value on CB1R [2] (WT, CRIP1a-XS and KD cells, 10 nM) is at most 5 min. The concentration for a half-maximal effect (EC50) on CB1R [1] (CRIP1a KD cells, 4 min) was 0.2 nM; at CB1R [1] (CRIP1a over-expression (XS) cells, 4 min), 1.6 nM; on CB1R [1] (N18TG2 WT cells, 4 min) it was 3.4 nM. Besides, on CB1R coupling to Gαi2 (CRIP1a XS membranes), the “stimulation of [35S]GTPγS binding to Gαi2” value amounted to 753±316 % above basal. Moreover, the “binding of Gαi2 to CB1R following treatment” value on CB1R coupling to Gαi2 (setting [4]) is listed as “no differences”. In addition, the “enhancement in [35S]GTPγS binding to Gαo” value on CB1R coupling to Gαo (CRIP1a KD membranes) was determined as 79±21 % over basal; on CB1R coupling to Gαo (CRIP1a XS membranes), 4±3 % over basal; at CB1R coupling to Gαo (WT membranes), 49±9 % over basal. Also, the “stimulated [35S]GTPγS binding to Gαi3” value is recorded as 103±22 % over basal at CB1R coupling to Gαi3 (CRIP1a KD membranes), 10±12 % over basal on CB1R coupling to Gαi3 (CRIP1a XS membranes), 62±21 % over basal on CB1R coupling to Gαi3 (Control clone membranes) and 79±18 % over basal at CB1R coupling to Gαi3 (WT membranes). The “stimulation of [35S]GTPγS binding to Gαi1” value on CB1R coupling to Gαi1 (CRIP1a XS membranes) is 128±54 % above basal. On CB1R coupling to Gαi1 (setting [4]), the “binding of Gαi1 to CB1R following treatment” value is reported as “no differences”.

These data come from paper PMC4332989 (Cellular signalling, 2014).
